Assay results from patent US20080299563A1, “HUMAN MAP2 GENE PROMOTER” (priority 2007, published 2008).

Columns and labels:
[1] = test system: MAP2 promoter; assay: Notch1 inhibition / HES1 knockdown, phMAP2-2 luciferase assay in WM35 primary melanoma cells; assay type: cell-based, human; details: DAPT 1 or 2 μM, 0.6 μg HES1shRNA
Experimental: (§1) Transient transfection and luciferase assays: Transient transfections with various promoter constructs were performed using Lipofectamine (Invitrogen, Carlsbad, Calif.) according to the manufacturer's instructions. Cells in 24- or 6-well tissue culture dishes, in triplicates, were transfected with 0.6 or 3 μg, respectively, of empty vector pGL3 or promoter-reporter constructs (phMAP2-1, phMAP2-2, phMAP2-3 and phMAP2-4) and 0.07 or 0.5 μg Renilla luciferase plasmid pRL. In co-transfection experiments, different amounts of NeuroD and Hes1 expression plasmids were added. For Notch1 inhibition and HES1 knockdown experiments, cells were either pre-treated with indicated amount of γ-secretase inhibitor-DAPT (Calbiochem, La Jolla, Calif.) and/or transfected with indicated amount of lentiviral HES1shRNA plasmid (The RNAi Consortium collection, a library of short hairpin DNAs cloned in pLKO.1 lentiviral vector; Open biosystem, Huntsville, Ala.) 1 day before transfection with MAP2 promoter constructs. After 48 h of transfection, cells were washed with pre-chilled PBS and lysed in passive lysis buffer (Dual Luciferase kit, Promega). Firefly luciferase and Renilla luciferase activities in the cell lysates were measured according to the manufacturer's instructions using TD 20/20-luminometer (Turner Biosystems, Sunnyvale, Calif.). […]

[2] = test system: MAP2 promoter; assay: Notch1 inhibition / HES1 knockdown, phMAP2-2 luciferase assay in 451Lu metastatic melanoma cells; assay type: cell-based, human; details: DAPT 1 or 2 μM, 0.6 μg HES1shRNA
Experimental: as §1

For `C[C@H](NC(=O)Cc1cc(F)cc(F)c1)C(=O)N[C@H](C(=O)OC(C)(C)C)c1ccccc1` [DAPT], the “MAP2 promoter activity (phMAP2-2 luciferase)” value [1] was “dose-dependent increase” and the “MAP2 promoter activity (phMAP2-2 luciferase)” value [2] was “not sufficient to activate MAP2 promoter”.
